These results are taken from article PMC6689975, “Novel Cell Wall Antifungals Reveal a Special Synergistic Activity in pbr1 Mutants Resistant to the Glucan Synthesis Antifungals Papulacandins and Echinocandins” (Frontiers in Microbiology, 2019).

Values after ≈ are worked out from the molar mass of the structure shown. Read-outs that look alike come from different tables or passages of the source.

What all share (test): microbe, parasite or virus in culture
Assay [1] concerns C. albicans wild-type. More on the design: species or system whole yeast cells; micro-culture broth dilution MIC in YES at 30 C, turbidity, complete growth inhibition. As to conditions: Candida albicans, read-out: MIC. On the procedure:
(§1) Standard YEPD (Yeast Extract, Peptone, Dextrose) ([Sherman, 1990]), YEPD+S (YEPD with 1.2M sorbitol), YES (Yeast Extract, Dextrose and Supplements of Adenine, Histidine, Leucine, Uracil and Lysine) ([Alfa et al., 1993]) and YES+S (YES with 1.2 M sorbitol) ([Ribas et al., 1991]; [Ishiguro et al., 1997]), media were used for determination of MIC values of the tested compounds. A stock solution of 10 mg/ml of each tested compounds was prepared in DMSO and serial dilutions in DMSO were prepared. The final concentration of DMSO was 2% in the YEPD medium. […] The serial dilutions of compounds were dispensed into test tubes with 1 ml of YEPD or YEPD+S to make final concentrations of 200, 100, 50, 25, 12.5, 6.26, 3.125, 1.6, 0.8 and 0.4 μg/ml. The tested yeast strains were previously grown in YEPD, YEPD+S, YES or YES+S agar plates at 30°C for 48 h. Micro-culture assays of large numbers of samples were analyzed as described) ([Martins et al., 2011]). Essentially early log-phase cells were grown in YEPD, YEPD+S, YES or YES+S (1.2 M sorbitol) medium at 30°C, and diluted to cell density of 4 X 10^6 cells/ml in YEPD, YEPD+S, YES or YES+S medium and aliquots of 100 μl were dispensed into each small test tube (3 ml test tube size). Then, another 100 μl of YEPD, YEPD+S, YES or YES+S with the corresponding dilution of each compound at 2X concentration (4% DMSO) was added. The final volume was 200 μl, with the cells diluted to of 2 X 10^6 cells/ml and each compound diluted to 1X final concentration, containing increasing concentrations of antifungal (0, 1, 2, 5, 10, 20, 50, 100 and 200 μg/ml) or an equivalent volume of solvent (2% DMSO). The cells were grown at 30°C in an orbital roller and turbidity was analyzed after 24 and 48 h of incubation. The MIC was determined as the minimal concentration of tested compound that produced complete cell growth inhibition and kept the medium clear. The MIC values were calculated from at least three independent experiments. Next, the first generation of isochromanones (1E-16E) was also screened in YES medium (Table 5) and exerted a weaker antifungal potency than in YEPD medium and also than the second family of isochromanones in YES medium (17E-30E) (Table 6). The strains are partly different from the previously mentioned ones (Tables 5, 6) analyzing two wild type C. albicans strains because they behaved similarly in YEPD. It is remarkable that there was no effect against either the C. albicans, the S. cerevisiae, or the S. pombe wild-type strains, except with 30E.

Assay [2] relates to T1, S. pombe wild-type 972 h-.
T1 construct: 972 h-
More on the design: species or system whole yeast cells; micro-culture broth dilution MIC in YES at 30 C, turbidity, complete growth inhibition. Particulars: Schizosaccharomyces pombe, read-out: MIC. On the procedure:
as §1

Assay [3] deals with T2, S. cerevisiae wild-type CVX12-3A.
T2 construct: CVX12-3A
More on the design: species or system whole yeast cells; micro-culture broth dilution MIC in YES at 30 C, turbidity, complete growth inhibition. Particulars: Saccharomyces cerevisiae, read-out: MIC. On the procedure: as §1

Assay [4] deals with C. albicans wild-type. The arrangement: species or system whole yeast cells; macro tube broth dilution MIC in YEPD at 30 C, visual clearness of medium. Particulars: Candida albicans, 48 h, read-out: MIC. The protocol:
(§2) Standard YEPD (Yeast Extract, Peptone, Dextrose) ([Sherman, 1990]), YEPD+S (YEPD with 1.2M sorbitol), YES (Yeast Extract, Dextrose and Supplements of Adenine, Histidine, Leucine, Uracil and Lysine) ([Alfa et al., 1993]) and YES+S (YES with 1.2 M sorbitol) ([Ribas et al., 1991]; [Ishiguro et al., 1997]), media were used for determination of MIC values of the tested compounds. A stock solution of 10 mg/ml of each tested compounds was prepared in DMSO and serial dilutions in DMSO were prepared. The final concentration of DMSO was 2% in the YEPD medium. […] The serial dilutions of compounds were dispensed into test tubes with 1 ml of YEPD or YEPD+S to make final concentrations of 200, 100, 50, 25, 12.5, 6.26, 3.125, 1.6, 0.8 and 0.4 μg/ml. The tested yeast strains were previously grown in YEPD, YEPD+S, YES or YES+S agar plates at 30°C for 48 h. For inoculation of YEPD or YEPD+S macro test tubes a suspension of tested fungus was produced with 10^5 cfu/ml (cfu - colony forming unit). 10 μl of suspension was used for inoculation of each tube. After 48 h incubation at 30°C the tubes were checked. The MIC value is the lowest concentration of the tested compound that could inhibit the fungal growth and the medium remained clear. From each tube 10 μl culture was plated on YEPD agar medium to check the contamination. The MIC tests were carried out in three parallels. The screening of the first generation of isochromanones was carried out in YEPD and YEPD+S media (1E-16E). The fungal strains analyzed are: C. albicans wild-type ATCC 26555, SC5314 and ATCC 90028, S. cerevisiae wild-type CVX12-3A and pbr1-1 mutant, and S. pombe wild-type (972h^–), pbr1-8 mutant and pbr1-6 mutant. The bold numbers in Tables 4–6 indicate the more efficient compounds. […] The weak or moderate efficacy against the C. albicans wild-type strains was observed by some substances (3E, 4Z, 5Z, 10E, 15, and 16E). The efficiency toward the S. pombe pbr1-6 mutant strain was the highest inhibitory activity, except 7E, 11E, 12 and 14E. […] As regards the other S. pombe pbr1-8 mutant strain, the antifungal activity of the tested compounds was slightly lower, but the substances with the best activity are partly identical to the best compounds mentioned with pbr1-6, (i.e., 1E, 3E, 4Z, 5Z).

The test system of assay [5] is C. albicans wild-type. More on the design: species or system whole yeast cells; macro tube broth dilution MIC in YEPD at 30 C, visual clearness of medium. Particulars: Candida albicans, 48 h, read-out: MIC. The protocol: as §2
The source holds these as a separate data set.

Assay [6] concerns C. albicans wild-type. The arrangement: species or system whole yeast cells; macro tube broth dilution MIC in YEPD at 30 C, visual clearness of medium. As to conditions: Candida albicans, 48 h, read-out: MIC. On the procedure:
as §2
The source holds these as a separate data set.

Assay [7] concerns T1, S. pombe wild-type 972 h-. More on the design: species or system whole yeast cells; macro tube broth dilution MIC in YEPD at 30 C, visual clearness of medium. As to conditions: Schizosaccharomyces pombe, 48 h, read-out: MIC. The protocol: as §2
Assay [8] concerns T2, S. cerevisiae wild-type CVX12-3A. The arrangement: species or system whole yeast cells; macro tube broth dilution MIC in YEPD at 30 C, visual clearness of medium. As to conditions: Saccharomyces cerevisiae, 48 h, read-out: MIC. On the procedure: as §2
Assay [9] concerns C. albicans wild-type. The arrangement: species or system whole yeast cells; micro-culture broth dilution MIC in YES at 30 C, turbidity, complete growth inhibition. Particulars: Candida albicans, read-out: MIC. The protocol: as §1
The source holds these as a separate data set.

With `O=C1OCc2ccccc2/C1=C\c1ccccc1` [1E], the MIC in assay [1] is more than 200 µg/mL; in assay [2], more than 200 µg/mL; in assay [3], more than 200 µg/mL; in assay [4], 200 µg/mL (≈ 846 µM); in [5], 200 µg/mL (≈ 846 µM); in assay [6], 200 µg/mL (≈ 846 µM). Also, the MIC was 25 µg/mL (≈ 106 µM) in [7] and 100 µg/mL (≈ 423 µM) in [8].
Turning to `O=C1OCc2ccccc2/C1=C/c1ccccc1` [1Z], the MIC is more than 200 µg/mL in assay [1]; more than 200 µg/mL in [2]; more than 200 µg/mL in assay [3]; 200 µg/mL (≈ 846 µM) in assay [4]; more than 200 µg/mL in assay [5]; more than 200 µg/mL in [6]. The MIC in assay [7] came to 50 µg/mL (≈ 212 µM); in assay [8], 100 µg/mL (≈ 423 µM).
`O=C1OCc2ccccc2/C1=C\c1ccc(C(=O)O)cc1` [2E]: the MIC in assay [1] was more than 200 µg/mL; in assay [2] it was more than 200 µg/mL; in assay [3], more than 200 µg/mL; in assay [4], 200 µg/mL (≈ 714 µM); in assay [5], 200 µg/mL (≈ 714 µM); in assay [6], 200 µg/mL (≈ 714 µM). Also, the MIC in assay [7] stood at 50 µg/mL (≈ 178 µM); in [8] it was 100 µg/mL (≈ 357 µM).
Take `O=C1OCc2ccccc2/C1=C\c1cccnc1` [3E]: the MIC in assay [1] is more than 200 µg/mL; in [2] it was 200 µg/mL (≈ 843 µM); in assay [3] it was 200 µg/mL (≈ 843 µM); in [4], 50 µg/mL (≈ 211 µM); in [5], 100 µg/mL (≈ 421 µM); in assay [6], 100 µg/mL (≈ 421 µM). Besides, the MIC came to 25 µg/mL (≈ 105 µM) in assay [7] and 50 µg/mL (≈ 211 µM) in assay [8].
With `Cn1cccc1/C=C1/C(=O)OCc2ccccc21` [4E], the MIC in assay [1] was more than 200 µg/mL; in [2] it was more than 200 µg/mL; in [3], more than 200 µg/mL; in [4], 200 µg/mL (≈ 836 µM); in assay [5] it was 200 µg/mL (≈ 836 µM); in assay [6], 200 µg/mL (≈ 836 µM). For the same compound, the values for the MIC in assay [7] and in assay [8] were 50 µg/mL (≈ 209 µM) and 100 µg/mL (≈ 418 µM), respectively.
In the case of `O=C1OCc2ccccc2/C1=C\c1ccc([N+](=O)[O-])cc1` [17E, E-4-[(4′-Nitrophenyl)Methylene]-3-Isochromanone], the MIC in [1] was more than 200 µg/mL; in assay [2], more than 200 µg/mL; in [3] it was 200 µg/mL (≈ 711 µM); in [9] it was more than 200 µg/mL.
For the compound `Cc1cc(C)c(/C=C2/C(=O)OCc3ccccc32)c(C)c1` [18E], the MIC in [1], in assay [2], in assay [3] and in assay [9] was more than 200 µg/mL throughout.
`Cc1ccccc1/C=C1/C(=O)OCc2ccccc21` [20E]: the MIC in [1], in [2], in assay [3] and in [9] was more than 200 µg/mL throughout.
In the case of `COc1cccc(/C=C2/C(=O)OCc3ccccc32)c1` [22E], the MIC in assay [1], in assay [2], in assay [3] and in [9] was more than 200 µg/mL in each case.
With `O=C1OCc2ccccc2/C1=C\c1ccc(Cl)cc1` [23E], the MIC in assay [1], in assay [2], in assay [3] and in assay [9] was more than 200 µg/mL throughout.
For `O=C1OCc2ccccc2/C1=C\c1cccc([N+](=O)[O-])c1` [24E], the MIC in assay [1], in [2], in assay [3] and in [9] was more than 200 µg/mL throughout.
Regarding `O=C1OCc2ccccc2/C1=C/c1cccc([N+](=O)[O-])c1` [24Z], the MIC in assay [1], in assay [2], in assay [3] and in assay [9] was more than 200 µg/mL throughout.
Regarding `COc1cc(/C=C2/C(=O)OCc3ccccc32)cc(OC)c1OC` [25E], the MIC in assay [1], in assay [2], in assay [3] and in assay [9] was more than 200 µg/mL each time.
For `COc1ccc(/C=C2/C(=O)OCc3ccccc32)cc1OC` [26E, E-4-[(3′,4′-Dimethoxyphenyl)Methylene]-3-Isochromanone], the MIC in assay [1], in assay [2], in [3] and in assay [9] was more than 200 µg/mL each time.
On to `O=C1OCc2ccccc2/C1=C\c1cccc(Cl)c1` [28E, E-4-[(3′-Chlorophenyl)Methylene]-3-Isochromanone], for which the MIC in assay [1], in assay [2], in assay [3] and in [9] was more than 200 µg/mL each time.
Turning to `O=C1OCc2ccccc2/C1=C/c1cccc(Cl)c1` [28Z, Z-4-[(3′-chlorophenyl)methylene]-3-isochromanone], the MIC in assay [1], in [2], in [3] and in [9] was more than 200 µg/mL throughout.
As for `O=C1OCc2ccccc2/C1=C\c1ccc(O)cc1` [29E, E-4-[(4′-Hydroxyphenyl)Methylene]-3-Isochromanone], the MIC in [1], in assay [2], in assay [3] and in [9] was more than 200 µg/mL each time.
For `COc1cc(/C=C2/C(=O)OCc3ccccc32)ccc1O` [30E, E-4-[(4′-Hydroxy-3′-Methoxyphenyl)Methylene]-3-Isochromanone], the MIC in [1] was more than 200 µg/mL; in assay [2], 150 µg/mL (≈ 531 µM); in assay [3], 150 µg/mL (≈ 531 µM); in assay [9], more than 200 µg/mL.
